This note sets out measurements from US20080234202A1, “Non-natural amino acids and neurotensin analogues” (priority 2004, published 2008).

Where a SMILES comes first, the peptide text is derived from it. [ ]: non-standard residue; d: D form. The star is where a group is joined. Tle = CC(C)(C)[C@H](N)C(=O)O; X1 = C[C@@H](CCCCCN)C(=O)*

A short description of data set [1]: Acute toxicity, clinical observation and maximum tolerated dose in rats. In kind it is in vivo, rat. How it is done:
During the 2 and 24 hour post-dosing clinical observation periods, measurements of core body temperatures were taken.

A further data set concerns mouse bone marrow cells. Briefly: Micronucleus study. It counts as in vivo. To be noted: oral, CD-1 mice; initial data. Here is the method:
Genetic Toxicology. […] Experimental protocols are as follows.
In the micronucleus study, 90 CD-1 mice used in the study consisted of 10/sex/group in Groups 1-4 (control, low-, mid-, and high-dose) and 5/sex in the positive control group. Test peptide as administered orally, the positive control, Cyclophosphamide at 80 mg/kg, as administered orally. Approximately 24 and 48 hours after dosing, mice were killed and bone marrow obtained from both femurs. A slide of a bone marrow suspension was prepared, stained with Wright-Giemsa stain, dried, and scored blind. The number of polychromatic erythrocytes (PCE) among the total erythrocytes (PCE+normochromatic erythrocytes (NCE)) were determined for each animal by counting at least 200 erythrocytes. The number of micronucleated polychromatic erythrocytes (MPCE) then were scored for 2000 PCE per animal. A positive result was obtained if there is a positive dose-response trend or statistically significant increase in the number of MPCE at one or more dose levels compared to controls.

Data set [2] is described as follows: Blood and plasma pharmacokinetics of ABS201 in rats. From the text: At selected time points, blood was removed or brain harvested and the concentration of the peptide analog determined using LC/MS/MS.
These samples were then used for the determination of plasma and brain drug levels by LC/MS/MS for estimating BBB penetration and pharmacokinetic parameters.

The procedure of data set [3]:
These samples were used for the determination of plasma drug by LC/MS/MS for estimating pharmacokinetic parameters and segmental absorption. The bioavailability of intra-stomach, intra-duodenum, intra-jejunum, intra-colon administration relative to intravenous administration and gavage was calculated.

For data set [4] the following is noted: whole blood, 5 or 30 min at 37° C.
For data set [5] the following is noted: 5 or 30 min incubation at 37° C.
The target of data set [6] is hERG (human ether-a-go-go related gene) channels (Homo sapiens, UniProt Q12809). The following applies: HEK293, 35±2° C.; initial results.
Sequence of hERG (human ether-a-go-go related gene) channels (Q12809 whole entry): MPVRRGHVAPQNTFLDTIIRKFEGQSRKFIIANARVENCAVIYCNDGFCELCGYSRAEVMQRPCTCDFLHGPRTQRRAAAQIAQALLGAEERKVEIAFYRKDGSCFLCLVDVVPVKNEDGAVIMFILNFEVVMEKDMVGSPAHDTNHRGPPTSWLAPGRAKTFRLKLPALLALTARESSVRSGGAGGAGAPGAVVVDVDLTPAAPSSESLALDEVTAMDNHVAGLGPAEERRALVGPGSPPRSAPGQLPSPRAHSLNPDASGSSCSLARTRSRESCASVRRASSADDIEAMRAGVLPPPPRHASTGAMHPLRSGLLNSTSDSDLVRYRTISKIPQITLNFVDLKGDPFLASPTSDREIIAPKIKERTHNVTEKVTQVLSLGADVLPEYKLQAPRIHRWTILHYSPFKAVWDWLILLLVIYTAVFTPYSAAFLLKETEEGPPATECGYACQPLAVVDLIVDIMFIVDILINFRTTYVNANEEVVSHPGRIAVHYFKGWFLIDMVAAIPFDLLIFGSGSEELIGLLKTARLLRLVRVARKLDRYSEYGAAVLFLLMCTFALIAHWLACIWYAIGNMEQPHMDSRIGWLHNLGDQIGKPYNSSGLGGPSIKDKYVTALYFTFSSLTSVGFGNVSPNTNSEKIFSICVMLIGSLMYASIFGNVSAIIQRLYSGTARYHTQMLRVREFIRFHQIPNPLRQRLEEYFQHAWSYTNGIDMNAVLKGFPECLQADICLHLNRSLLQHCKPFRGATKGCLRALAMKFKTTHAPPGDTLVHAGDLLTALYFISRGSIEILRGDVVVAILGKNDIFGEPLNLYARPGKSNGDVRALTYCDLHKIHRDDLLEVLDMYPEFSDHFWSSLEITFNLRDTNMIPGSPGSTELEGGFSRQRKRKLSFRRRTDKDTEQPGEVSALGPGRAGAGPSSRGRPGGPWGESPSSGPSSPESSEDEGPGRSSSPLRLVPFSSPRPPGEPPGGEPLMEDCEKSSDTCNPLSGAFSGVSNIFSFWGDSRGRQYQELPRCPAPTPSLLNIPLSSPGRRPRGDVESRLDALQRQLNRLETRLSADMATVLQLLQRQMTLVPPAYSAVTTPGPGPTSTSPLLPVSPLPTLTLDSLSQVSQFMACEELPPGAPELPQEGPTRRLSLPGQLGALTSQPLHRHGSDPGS
Experimental: hERG Assay. The objective of the hERG study is to assess the effects of the test article on the rapidly activating inward rectifying potassium current (IKr) conducted by hERG (human ether-a-go-go related gene) channels stably expressed in a HEK293 cell line. The method used is as follows. HEK293 cells, stably transfected with hERG cDNA, were used in the study. All experiments were performed at near-physiological temperature (35±2° C.). A positive control (60 nM terfenadine) was applied to two cells (n≧2). Cells were be transferred to the recording chamber and superfused with HB-PS solution. The recording chamber and bathing solution were maintained at a temperature of 35±2° C. using a combination of in-line solution pre-heater, chamber floor heater, and feedback temperature controller. Bath temperature were measured using a thermistor probe.
Patch pipettes were made from glass capillary tubing using a P-97 micropipette puller (Sutter Instruments, Calif.). A commercial patch clamp amplifier was used for whole cell recordings. Before digitization, current records were low-pass filtered at one-fifth of the sampling frequency.
Cells stably expressing hERG were held at −80 mV.
A further data set deals with T1, CYP1A2 (Homo sapiens, UniProt P05177).
T1 sequence (P05177 1-516): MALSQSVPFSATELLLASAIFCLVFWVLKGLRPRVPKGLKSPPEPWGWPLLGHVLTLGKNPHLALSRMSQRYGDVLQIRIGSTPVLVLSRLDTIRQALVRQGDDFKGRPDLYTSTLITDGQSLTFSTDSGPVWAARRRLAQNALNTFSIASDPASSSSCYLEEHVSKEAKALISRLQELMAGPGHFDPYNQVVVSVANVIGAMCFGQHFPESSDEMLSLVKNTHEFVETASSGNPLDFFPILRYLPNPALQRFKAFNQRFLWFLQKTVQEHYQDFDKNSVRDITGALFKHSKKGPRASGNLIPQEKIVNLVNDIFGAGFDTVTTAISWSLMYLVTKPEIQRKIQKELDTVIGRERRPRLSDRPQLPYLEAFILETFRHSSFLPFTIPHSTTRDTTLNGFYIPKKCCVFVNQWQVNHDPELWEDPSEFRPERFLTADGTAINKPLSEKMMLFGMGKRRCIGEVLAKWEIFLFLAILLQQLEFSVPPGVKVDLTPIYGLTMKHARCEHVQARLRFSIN
Nature of the data set: Liver CYP screening: CYP1A2. To be noted: 10^−3, 10^−2, 0.1 M.

The next data set concerns the target T2, CYP2B6 (Homo sapiens, UniProt P20813).
T2 sequence (P20813 1-491): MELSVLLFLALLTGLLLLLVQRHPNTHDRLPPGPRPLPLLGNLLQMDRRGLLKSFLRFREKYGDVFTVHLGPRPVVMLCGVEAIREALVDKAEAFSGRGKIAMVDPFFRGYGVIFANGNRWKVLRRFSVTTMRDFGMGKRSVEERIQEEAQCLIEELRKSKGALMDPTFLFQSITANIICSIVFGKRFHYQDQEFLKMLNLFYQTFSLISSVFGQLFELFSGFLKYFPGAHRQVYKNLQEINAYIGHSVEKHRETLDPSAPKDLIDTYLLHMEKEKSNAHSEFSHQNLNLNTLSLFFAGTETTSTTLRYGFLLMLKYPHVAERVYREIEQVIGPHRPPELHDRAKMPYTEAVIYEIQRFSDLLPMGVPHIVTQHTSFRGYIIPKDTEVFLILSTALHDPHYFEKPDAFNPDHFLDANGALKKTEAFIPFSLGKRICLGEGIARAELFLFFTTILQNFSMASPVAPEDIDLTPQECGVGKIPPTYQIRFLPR
Nature of the data set: Liver CYP screening: CYP2B6. The following applies: 10^−3, 10^−2, 0.1 M.

The next data set has as its target CYP2C9 (Homo sapiens, UniProt P11712). Nature of the data set: Liver CYP screening: CYP2C9. The following applies: 10^−3, 10^−2, 0.1 M.
The target of the next data set is CYP2D6 (Homo sapiens, UniProt P10635). Briefly: Liver CYP screening: CYP2D6. To be noted: 10^−3, 10^−2, 0.1 M.
Sequence of CYP2D6 (P10635 whole entry): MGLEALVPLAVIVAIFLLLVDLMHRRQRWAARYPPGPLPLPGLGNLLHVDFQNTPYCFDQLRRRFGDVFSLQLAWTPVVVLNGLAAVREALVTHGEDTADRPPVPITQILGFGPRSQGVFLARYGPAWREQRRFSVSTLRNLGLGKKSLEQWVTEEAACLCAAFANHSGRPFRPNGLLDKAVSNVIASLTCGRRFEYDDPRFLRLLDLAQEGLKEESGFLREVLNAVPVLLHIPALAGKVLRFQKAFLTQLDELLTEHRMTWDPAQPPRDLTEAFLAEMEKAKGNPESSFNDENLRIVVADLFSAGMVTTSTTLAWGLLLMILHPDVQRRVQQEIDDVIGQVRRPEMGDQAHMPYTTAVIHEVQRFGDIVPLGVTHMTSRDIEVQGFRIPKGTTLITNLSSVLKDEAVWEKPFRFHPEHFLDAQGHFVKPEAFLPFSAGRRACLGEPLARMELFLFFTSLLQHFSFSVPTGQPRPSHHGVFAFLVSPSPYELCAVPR
The target of the next data set is CYP3A4 (Homo sapiens, UniProt P08684). Nature of the data set: Liver CYP screening: CYP3A4. To be noted: 10^−3, 10^−2, 0.1 M.
Sequence of CYP3A4 (P08684 whole entry): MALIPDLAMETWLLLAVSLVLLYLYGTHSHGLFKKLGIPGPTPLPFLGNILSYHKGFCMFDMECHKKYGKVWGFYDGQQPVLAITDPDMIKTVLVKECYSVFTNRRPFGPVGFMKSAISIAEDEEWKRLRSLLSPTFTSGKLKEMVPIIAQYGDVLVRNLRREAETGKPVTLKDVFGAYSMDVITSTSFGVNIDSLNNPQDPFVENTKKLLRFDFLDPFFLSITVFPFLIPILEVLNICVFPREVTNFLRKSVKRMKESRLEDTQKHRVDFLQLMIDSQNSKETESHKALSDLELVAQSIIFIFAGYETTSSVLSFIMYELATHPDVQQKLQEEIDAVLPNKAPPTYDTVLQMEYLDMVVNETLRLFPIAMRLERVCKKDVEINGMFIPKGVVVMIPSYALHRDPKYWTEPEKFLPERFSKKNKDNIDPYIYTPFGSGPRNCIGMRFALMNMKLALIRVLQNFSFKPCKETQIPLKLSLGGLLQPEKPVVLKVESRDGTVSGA
For another data set, the target named is CYP2C19 (Homo sapiens, UniProt P33261). Briefly: Liver CYP screening: CYP2C19. To be noted: 10^−3, 10^−2, 0.1 M.
Sequence of CYP2C19 (P33261 whole entry): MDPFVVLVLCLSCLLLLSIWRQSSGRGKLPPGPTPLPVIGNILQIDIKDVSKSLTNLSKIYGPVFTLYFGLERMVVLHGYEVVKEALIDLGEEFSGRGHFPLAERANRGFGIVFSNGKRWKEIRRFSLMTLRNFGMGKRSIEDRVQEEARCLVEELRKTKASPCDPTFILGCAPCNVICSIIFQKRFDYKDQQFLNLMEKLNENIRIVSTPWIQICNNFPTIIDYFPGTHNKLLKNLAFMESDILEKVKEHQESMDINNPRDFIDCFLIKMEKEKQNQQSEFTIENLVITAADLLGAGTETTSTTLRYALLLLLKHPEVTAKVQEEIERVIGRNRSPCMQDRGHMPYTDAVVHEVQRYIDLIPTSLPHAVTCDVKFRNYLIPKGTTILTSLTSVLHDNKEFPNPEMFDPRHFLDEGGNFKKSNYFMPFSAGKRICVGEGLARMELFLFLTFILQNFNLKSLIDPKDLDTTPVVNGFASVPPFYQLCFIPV
A short description of data set [7]: Catalepsy, horizontal bar test. The following applies: Table 11.
Experimental: Cataleptic Analysis. In laboratory tests, catalepsy is characterized by the inability of an animal to correct its position after placement in an unnatural posture. […] To circumvent these potential confounding factors, tests are performed on an animal only once in a quiet, controlled environment.
Catalepsy Assessment. […] Rats were given an IP injection of peptide (5 mg/Kg), saline, or haloperidol (1 mg/kg). After 3 hours, catalepsy was measured using the horizontal bar test. Briefly, the front paws were placed directly on a horizontal bar 5 mm in diameter placed 7.5 cm above the cage floor. The rat was held in this position for 3 sec and then released. The time from release until the paws return to the cage floor was measured and recorded. A cut-off time of 30 sec was observed; this indicated a fully cataleptic animal as cataleptic animals are frozen to the bar. […] Measures were repeated every 30 min for 4 hr. Data are means±SEM (p<0.01).
After 2 h, catalepsy was measured using the horizontal bar test. Data are means±SEM (p<0.01).

Sequence of CYP2C9 (P11712 whole entry): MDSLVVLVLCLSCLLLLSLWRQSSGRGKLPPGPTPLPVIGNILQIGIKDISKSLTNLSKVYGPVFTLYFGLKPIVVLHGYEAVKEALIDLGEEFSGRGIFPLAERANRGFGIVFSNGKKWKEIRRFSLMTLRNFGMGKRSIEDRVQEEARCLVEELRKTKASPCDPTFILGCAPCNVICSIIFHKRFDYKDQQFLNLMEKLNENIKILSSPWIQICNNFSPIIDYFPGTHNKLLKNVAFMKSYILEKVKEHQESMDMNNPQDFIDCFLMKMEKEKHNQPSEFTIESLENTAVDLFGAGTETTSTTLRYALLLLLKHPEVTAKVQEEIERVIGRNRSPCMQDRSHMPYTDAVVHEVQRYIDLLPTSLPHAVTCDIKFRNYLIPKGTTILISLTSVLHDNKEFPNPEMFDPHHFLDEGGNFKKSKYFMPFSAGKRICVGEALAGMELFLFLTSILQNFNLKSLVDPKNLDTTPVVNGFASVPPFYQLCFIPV
Text for CYP1A2: (§1) Liver Receptor Screening (Stanford Research Institute Study B213-06).
Text for CYP2B6: as §1
Text for CYP2C19: as §1
Text for CYP2C9: as §1
Text for CYP2D6: as §1
Text for CYP3A4: as §1

As to `CC(C)C[C@H](NC(=O)[C@@H](NC(=O)[C@H](Cc1ccc(O)cc1)NC(=O)[C@@H]1CCCN1C(=O)[C@H](CCCNC(=N)N)NC(=O)[C@@H](C)CCCCCN)C(C)(C)C)C(=O)O` [ABS201, hLys-Arg-Pro-Tyr-t-Leu-Leu] (X1-RPY[Tle]L-OH), in [1] (rat, in vivo), the “lower limit for the MTD” value was not below 100 times the ED50. The “Toxicity, dose without toxicity” value in [1] (single acute dose I.P.) was “(>100 × ED50)”. Further, the Toxicity entry in data set [1] (single acute dose at 100x ED50 administered I.P.) is “No”. Also, the micronucleus study result with mouse bone marrow cells is “inactive”. Further, the “time by which plasma levels decreased below the LLOD” value in [2] (IV 1 mg/kg) was not above 45 min. Moreover, the “clearance as % of rat hepatic blood flow” value in data set [2] (IV 5 mg/kg) is 74.02%. For the same compound, in data set [2] (IV 5 mg/kg), the “time over which measurable in whole blood” value is listed as “up to 120 minutes”. Further, the “time over which detectable in the blood and brain” value in data set [2] (IV 5 mg/kg or oral 50 mg/kg, LC/MS/MS) was “up to 120 minutes”. Also, the “segment with maximal uptake” value in data set [3] (in situ looped models) is “intra-duodenum exhibiting the maximal amount of uptake”. The “site of absorption in the GI tract” value in data set [3] (in situ looped models) is on record as “absorbed almost entirely in the intestine”. Further, the “uptake in the stomach” value in data set [3] (intra-stomach) is “Virtually no ABS201 is taken up in the stomach”. Further, the “distribution into blood cellular elements” value in [4] is recorded as “about 33%”. In addition, the “binding to plasma proteins” value in data set [5] is listed as “little or no binding”. Also, in [6], the hERG study result is “inactive”. Moreover, the “inhibition of substrate binding” value at CYP1A2, at CYP2B6, on CYP2C9, at CYP2D6, on CYP3A4 and at CYP2C19 was “No inhibition” in each case. The Catalepsy entry in [7] is listed as “No”.
